# Test results from patent publication US20230263768A1, “WATER-SOLUBLE ARTESUNATE-BASED THERAPY FOR CORONAVIRUS INFECTION” (priority 2020, published 2023).
# Experiments:
# [1] = Solubility of artesunate formulations in simulated gastric fluid; assay type: physicochemical; settings: 0.5 g in 10 mL SGF pH 1.2, 36.5° C., 100 rev/min, after 30 minutes
# Experimental: An amount of 0.5 g of different artesunate formulations (untreated artesunate, sodium Artesunate, Artesunate/SG complex and WSA powders) are dispersed in 10 mL of simulated gastric fluid (SGF, pH 1.2). All solutions are incubated at 36.5° C. under mild shaking with (100 rev/min) in a G24 Environmental Incubator Shaker (New Brunswick Scientific Co., NJ, USA).
# [2] = tested on: SARS-CoV-2 (isolate USA-WA1-2020); test: SARS-CoV-2 replication in VERO E6 cells, viral RNA by qPCR (Ct) after 48 h; assay type: cell-based
# [3] = Example 4, 160 µg/mL, 48 h, VERO E6
Structure (SMILES),appearance of the solution / precipitation in SGF [1],"Cycle Threshold Value (quantity of viral RNA) [2, 3]","antiviral activity (in words) [2, 3]","Cycle Threshold Value (quantity of viral RNA) ([2]; Example 4, 160 µg/mL, 48 h, VERO E6, listed as sodium artesunate)","antiviral activity (in words) ([2]; Example 6, dose response and combination with Telmisartan)"
C[C@H]1[C@H](OC(=O)CCC(=O)[O-])O[C@@H]2O[C@@]3(C)CC[C@H]4[C@H](C)CC[C@@H]1[C@@]24OO3.[Na+] [Sodium Artesunate],"cloudy, but no evident precipitation is observed",22.5,Low antiviral activity,about 23,
CCCc1nc2c(C)cc(-c3nc4ccccc4n3C)cc2n1Cc1ccc(-c2ccccc2C(=O)O)cc1 [Telmisartan],,,,,No activity antiviral is observed
"C[C@@H]1CCC2[C@@H](C)[C@H](OC(=O)CCC(=O)O)OC3O[C@]4(C)CCC1[C@]32OO4 (stereo partly drawn) [untreated Artesunate, Artesunate]","milky appearance, with an important precipitation at the bottom of vial",,,,
